Measured values published in patent publication US20070207967A1, “Peptide Inhibitors of Matrix Metalloproteinase Activity” (CTT CANCER TARGETING TECHNOLOGIES OY, priority 2004, published 2007).

Experiments:
pro-MMP-9 [1] = biological target: T1, pro-MMP-9 (Homo sapiens, UniProt P14780); experiment: Plasmin/MMP-3-mediated pro-MMP-9 activation in HT1080 cells, zymography; type: cell-based; conditions: PDBu-activated HT1080, plasminogen, peptides 200 μM
Experimental: (§1) Activation of MMP-9. THP-1 cells (40 000/100 μl) or confluent HT1080 cells were incubated for 16 h in the presence or absence of 2.5 μg/ml plasminogen, 0.5 μg/ml pro-MMP-3 (Oncogene Research Products), 40 nM PDBu, and the peptides at a 200 μM concentration unless otherwise indicated. Aliquots of the conditioned media were analyzed by gelatin zymography (9). […] The samples were analyzed by gelatin zymography.

[2] = test system: HSC-3 tongue squamous cell carcinoma xenografts; experiment: Tumor growth in vivo, HSC-3 xenografts
Experimental: Tumor growth in vivo. […] HSC-3 tumors were established by administering 5×10^6 tumor cells in a 100 μl volume in PBS in both flanks of the Hsd:Athymic Nude-nu mice. After three days, the mice received five daily injection of 0.8 mg/ml CRV or the scrambled peptide or the vehicle (PBS) via the tail vein in a 200 μl volume. Three-dimensional caliper measurements were taken twice a week and the tumor volumes calculated. Mice were sacrificed when the tumor volume reached 1000 mm^3. For the staining of the tumor vasculature, 7 μm frozen tissue sections were stained with anti-CD31 antibody (MEC 13.3, BD Biosciences) and anti-rat Alexa Fluor 488 antibodies.

pro-MMP-9 [3] = biological target: T1, pro-MMP-9; experiment: Pro-MMP-9 activation in THP-1 cells, zymography; type: cell-based; conditions: THP-1, pro-MMP-3 and plasminogen, peptides 200 μM
Experimental: as §1

pro-MMP-9 [4] = biological target: T1, pro-MMP-9; experiment: Phage binding to pro-MMP-9 with competitors; conditions: competitor peptides 20 μM, gelatin 2.5 μg/ml
Experimental: Phage display. Phage display selections were made using random peptide libraries CX7-10C and X9-10 (13). Purified human pro-MMP-9 (9) or recombinant MMP-9 C domain (2 μg/ml) was immobilized on microtiter wells and the wells were blocked with BSA. The phage were added in 50 mM Hepes (pH 7.5)/5 mM CaCl2/1 μM ZnCl2/150 mM NaCl/2% BSA. After three rounds of selection the phage sequences were determined (14). The phage binding specificity was tested with pro-MMPs or the recombinant domains (20 ng/well). The phage (10^8 transducing units/well) were allowed to bind in the absence or presence of competitor peptides (20 μM), gelatin (2.5 μg/ml) or TIMP-1 (2.5 μg/ml, Calbiochem) followed by washings with PBS/0.05% Tween20 (PBST). The phage were detected with a peroxidase-conjugated anti-phage antibody (Amersham Biosciences).

pro-MMP-2 = experiment: Pro-MMP-2 activation in HT1080 cells, zymography; type: cell-based, human; conditions: PDBu-activated HT1080, peptides 200 μM
Experimental: as §1

THP-1 monocytic cells = experiment: THP-1 cell migration on GST-LLG-C4; type: cell-based, human; conditions: GST-LLG-C4 substratum, 16 h
Experimental: Cell migration and invasion. The cell migration assay was conducted using transwell migration chambers (8 μm pore size, Costar) in 10% serum-containing medium (2,14). Briefly, the membranes were coated on both sides with 40 μg/ml GST or with the β2 integrin ligand peptide […]-GST fusion (GST-LLG-C4) and blocked with complete medium. THP-1 cells (50 000/100 μl) were preincubated with the peptides for 1 h in serum-containing medium. The cells were allowed to migrate for 16 h and were then stained with crystal violet and counted (14). The HT1080 (20 000 cells/I100 μl) invasion assay was performed as the THP-1 migration, except that matrigel coated transwells (BD Biosciences) were used.

CBD = biological target: T2, CBD (Homo sapiens, UniProt P14780); experiment: Gelatin binding to immobilized CBD; conditions: biotinylated gelatin
T2 construct: CBD (amino acids Gly^204-Gly^373) was amplified from MMP-9 cDNA; made in house; host or cells: E. coli
T2 sequence (P14780 223-392 limits assumed): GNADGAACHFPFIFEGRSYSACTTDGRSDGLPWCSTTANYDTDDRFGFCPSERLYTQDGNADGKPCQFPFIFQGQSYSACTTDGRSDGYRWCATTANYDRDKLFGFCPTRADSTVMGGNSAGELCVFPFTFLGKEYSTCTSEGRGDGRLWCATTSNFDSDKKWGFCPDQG
Experimental: Gelatin and CBD binding assays. Recombinant CBD or human plasma fibronectin (Calbiochem) (0.2 μg/ml in TBS) was immobilized in microtiter wells. The wells were saturated with 1% BSA-PBST. Biotinylated gelatin (0.2 μg/ml in 1% BSA-PBST) was added with or without peptides at the concentrations indicated or with an excess of unlabelled gelatin (10 μg/ml) and allowed to bind for 1 h. Bound gelatin was detected with streptavidin-peroxidase. CBD binding to immobilized fibronectin, the 110-kDa fragment of fibronectin (Upstate Biotechnology) or urea-denaturated human plasma vitronectin (17) (1 μg/well) was studied using biotinylated CBD (5 μg/ml) in 1% BSA-PBST in the presence or absence of 20 μM peptides.

T1 sequence (P14780 20-707 limits assumed): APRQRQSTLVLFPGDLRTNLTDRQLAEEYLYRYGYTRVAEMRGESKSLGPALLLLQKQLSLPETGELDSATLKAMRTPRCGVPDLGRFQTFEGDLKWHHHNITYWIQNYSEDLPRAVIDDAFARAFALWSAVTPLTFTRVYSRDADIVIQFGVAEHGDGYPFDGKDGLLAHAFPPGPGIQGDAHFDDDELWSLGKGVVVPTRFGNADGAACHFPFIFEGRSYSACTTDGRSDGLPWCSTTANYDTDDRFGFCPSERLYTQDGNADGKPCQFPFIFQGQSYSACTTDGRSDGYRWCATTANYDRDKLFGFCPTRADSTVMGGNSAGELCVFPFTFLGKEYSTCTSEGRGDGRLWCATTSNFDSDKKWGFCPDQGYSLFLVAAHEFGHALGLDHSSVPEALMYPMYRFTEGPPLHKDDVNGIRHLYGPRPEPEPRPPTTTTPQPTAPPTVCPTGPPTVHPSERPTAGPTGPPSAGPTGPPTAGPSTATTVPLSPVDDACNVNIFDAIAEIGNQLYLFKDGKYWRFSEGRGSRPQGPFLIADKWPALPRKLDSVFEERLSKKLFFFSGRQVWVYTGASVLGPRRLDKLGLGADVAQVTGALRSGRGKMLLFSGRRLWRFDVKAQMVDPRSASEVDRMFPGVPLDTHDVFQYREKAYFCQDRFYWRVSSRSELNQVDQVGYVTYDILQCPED

## CRVYGPYLLC
pro-MMP-9 [1]
  Inhibition of pro-MMP-9 activation: inhibited pro-MMP-9 activation strongly
[2]; after two months
  Survival of the mice: all five CRV-injected mice were alive
[2]; at 31 days, five daily i.v. injections, vs scrambled peptide or PBS
  Inhibition of tumor growth: statistically significant inhibition of tumor growth
[2]; mouse, in vivo
  Kaplan-Meier survival, Log-Rank test p vs. PBS: 0.002
  Kaplan-Meier survival, Log-Rank test p vs. scrambled CRV: 0.003
  Tumor vasculature, CD31 immunostaining: less developed tumor vasculature
pro-MMP-9 [3]
  Effect on pro-MMP-9 activation: blocked
pro-MMP-9 [4]
  Binding of PPC peptide-bearing phage to pro-MMP-9, competition: not
pro-MMP-9 [4]; TIMP-1 2.5 μg/ml
  Binding of the CRV-phage to pro-MMP-9, competition: inhibited
pro-MMP-2
  Inhibition of activation of pro-MMP-2: partially
THP-1 monocytic cells
  Inhibition of THP-1 migration: inhibitory effect
CBD
  Inhibition of gelatin binding to immobilized CBD: not
